According to patent US7074789B2, “Kinase inhibitors” (Amgen Inc., priority 1999, dated 2006):

How the values were obtained:
Format in all cases: biochemical
[1] = target: T1, Itk (Homo sapiens, UniProt Q08881); assay: Kinase inhibition assay (33P transfer), Itk; settings: read-out: Itk-1
T1 construct: Kinases are expressed as either kinase domains or full length constructs; made in house
T1 sequence (Q08881 1-620): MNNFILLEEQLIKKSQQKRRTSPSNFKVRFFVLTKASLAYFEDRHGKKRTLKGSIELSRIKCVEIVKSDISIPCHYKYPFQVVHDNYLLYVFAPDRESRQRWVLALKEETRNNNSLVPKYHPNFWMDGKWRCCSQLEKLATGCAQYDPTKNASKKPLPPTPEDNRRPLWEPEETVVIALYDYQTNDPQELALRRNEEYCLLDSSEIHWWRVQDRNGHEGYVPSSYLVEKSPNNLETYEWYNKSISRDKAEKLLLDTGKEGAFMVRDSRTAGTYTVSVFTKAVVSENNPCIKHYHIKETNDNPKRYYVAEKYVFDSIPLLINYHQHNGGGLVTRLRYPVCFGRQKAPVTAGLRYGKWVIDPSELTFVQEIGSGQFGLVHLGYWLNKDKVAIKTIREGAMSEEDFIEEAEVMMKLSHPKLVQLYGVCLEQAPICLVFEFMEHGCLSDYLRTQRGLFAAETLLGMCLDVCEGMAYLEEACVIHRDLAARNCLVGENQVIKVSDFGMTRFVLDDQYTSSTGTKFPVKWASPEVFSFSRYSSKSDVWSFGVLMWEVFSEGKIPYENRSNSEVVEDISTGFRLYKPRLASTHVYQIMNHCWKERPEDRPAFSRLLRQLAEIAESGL
In short: (§1)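 Recombinant kinase domains or full-length GST- or His-tagged constructs, from E. coli or baculovirus/High Five cells, sometimes with regulatory polypeptides. Transfer of 33P from ATP to plate-bound poly(Glu,Tyr) 4:1 or poly(Arg,Ser) 3:1 counted by liquid scintillation after phosphoric acid wash; IC50 is the concentration halving incorporation.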

[2] = target: T2, Zap-70 (Homo sapiens, UniProt P43403); assay: Kinase inhibition assay (33P transfer), Zap-70; settings: read-out: Zap-1
T2 construct: Kinases are expressed as either kinase domains or full length constructs; made in house
T2 sequence (P43403 1-619): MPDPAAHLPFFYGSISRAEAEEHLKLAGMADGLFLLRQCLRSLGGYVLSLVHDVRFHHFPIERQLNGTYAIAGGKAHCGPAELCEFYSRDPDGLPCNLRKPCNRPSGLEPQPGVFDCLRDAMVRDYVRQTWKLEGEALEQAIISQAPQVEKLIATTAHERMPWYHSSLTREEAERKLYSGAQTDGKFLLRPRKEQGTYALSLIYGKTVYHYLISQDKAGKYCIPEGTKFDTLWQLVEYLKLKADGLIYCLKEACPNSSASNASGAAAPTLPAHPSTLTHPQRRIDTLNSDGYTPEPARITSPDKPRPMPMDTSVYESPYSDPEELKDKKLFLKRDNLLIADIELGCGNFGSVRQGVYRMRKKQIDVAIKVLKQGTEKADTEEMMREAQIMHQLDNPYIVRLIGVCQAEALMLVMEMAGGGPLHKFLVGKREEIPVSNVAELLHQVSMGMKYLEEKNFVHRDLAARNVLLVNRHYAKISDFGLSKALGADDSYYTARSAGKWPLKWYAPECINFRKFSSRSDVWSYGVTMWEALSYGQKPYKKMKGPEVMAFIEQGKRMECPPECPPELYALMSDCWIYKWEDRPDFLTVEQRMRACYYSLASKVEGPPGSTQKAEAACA
In short: (§2)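 Radiometric readout: 33P incorporated into surface-bound poly(Glu,Tyr) 4:1 or poly(Arg,Ser) 3:1 is counted by liquid scintillation after a 0.5% phosphoric acid wash. Enzymes were GST or polyHis fusions (kinase domain or full length) from E. coli or High Five insect cells.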

[3] = target: T3, Kdr (Homo sapiens, UniProt P35968); assay: Kinase inhibition assay (33P transfer), Kdr; settings: read-out: KDR-1
T3 construct: Kinases are expressed as either kinase domains or full length constructs; made in house
In short: as §2

[4] = target: T4, c-Met (Homo sapiens, UniProt P08581); assay: Kinase inhibition assay (33P transfer), c-Met; settings: Table 2, kinase inhibition class; read-out: Met-1
T4 construct: Kinases are expressed as either kinase domains or full length constructs; made in house
In short: as §1

[5] = target: T5, ErbB2 (Homo sapiens, UniProt P04626); assay: Kinase inhibition assay (33P transfer), ErbB2; settings: read-out: ErbB2-2
T5 construct: Kinases are expressed as either kinase domains or full length constructs; made in house
T5 sequence (P04626 23-1255, species assumed): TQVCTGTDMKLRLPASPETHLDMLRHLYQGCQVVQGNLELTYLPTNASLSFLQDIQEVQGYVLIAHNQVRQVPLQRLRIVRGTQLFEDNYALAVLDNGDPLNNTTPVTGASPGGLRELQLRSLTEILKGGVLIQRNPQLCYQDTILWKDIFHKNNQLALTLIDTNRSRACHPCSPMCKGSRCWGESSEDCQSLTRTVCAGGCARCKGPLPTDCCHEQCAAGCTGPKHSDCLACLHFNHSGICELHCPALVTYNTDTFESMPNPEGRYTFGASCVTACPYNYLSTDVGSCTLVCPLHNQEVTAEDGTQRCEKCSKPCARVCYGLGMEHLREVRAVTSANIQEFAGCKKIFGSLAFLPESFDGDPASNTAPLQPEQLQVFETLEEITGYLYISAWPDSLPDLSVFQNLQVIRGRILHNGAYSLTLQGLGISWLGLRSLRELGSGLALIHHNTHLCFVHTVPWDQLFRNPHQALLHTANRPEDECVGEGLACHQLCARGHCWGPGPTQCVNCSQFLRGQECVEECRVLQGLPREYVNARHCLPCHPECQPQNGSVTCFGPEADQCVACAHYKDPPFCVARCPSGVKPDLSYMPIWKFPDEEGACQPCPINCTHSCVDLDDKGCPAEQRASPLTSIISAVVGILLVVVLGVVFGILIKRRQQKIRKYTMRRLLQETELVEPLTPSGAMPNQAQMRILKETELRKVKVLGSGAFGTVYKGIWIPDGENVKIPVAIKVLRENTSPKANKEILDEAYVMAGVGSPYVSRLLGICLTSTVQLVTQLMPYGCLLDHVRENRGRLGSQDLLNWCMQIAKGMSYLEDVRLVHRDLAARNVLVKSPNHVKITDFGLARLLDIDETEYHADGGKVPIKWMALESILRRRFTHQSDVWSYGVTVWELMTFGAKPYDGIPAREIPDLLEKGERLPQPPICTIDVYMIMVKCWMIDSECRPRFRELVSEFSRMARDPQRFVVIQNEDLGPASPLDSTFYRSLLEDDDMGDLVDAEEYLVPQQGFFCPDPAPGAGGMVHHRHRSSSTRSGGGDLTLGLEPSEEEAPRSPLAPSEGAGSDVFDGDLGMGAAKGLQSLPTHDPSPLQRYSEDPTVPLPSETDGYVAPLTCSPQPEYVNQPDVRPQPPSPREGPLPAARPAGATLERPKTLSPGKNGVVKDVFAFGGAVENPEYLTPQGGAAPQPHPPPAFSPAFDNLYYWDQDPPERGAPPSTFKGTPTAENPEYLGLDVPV
In short: as §1

[6] = target: T6, EGFR (Homo sapiens, UniProt P00533); assay: Kinase inhibition assay (33P transfer), EGFR; settings: Table 2, kinase inhibition class; read-out: EGFR-1
T6 construct: Kinases are expressed as either kinase domains or full length constructs; made in house
In short: as §1

[7] = target: T7, FGFR1 (Homo sapiens, UniProt P11362); assay: Kinase inhibition assay (33P transfer), FGFR1; settings: read-out: FGFR1-1
T7 construct: Kinases are expressed as either kinase domains or full length constructs; made in house

[8] = target: T8, ErbB4 (Homo sapiens, UniProt Q15303); assay: Kinase inhibition assay (33P transfer), ErbB4; settings: read-out: ErbB4-1
T8 construct: Kinases are expressed as either kinase domains or full length constructs; made in house

[9] = target: T9, PDGFRB (Homo sapiens, UniProt P09619); assay: Kinase inhibition assay (33P transfer), PDGFRB; settings: read-out: PDGFRB-1
T9 construct: Kinases are expressed as either kinase domains or full length constructs; made in house
T9 sequence (P09619 33-1106, species assumed): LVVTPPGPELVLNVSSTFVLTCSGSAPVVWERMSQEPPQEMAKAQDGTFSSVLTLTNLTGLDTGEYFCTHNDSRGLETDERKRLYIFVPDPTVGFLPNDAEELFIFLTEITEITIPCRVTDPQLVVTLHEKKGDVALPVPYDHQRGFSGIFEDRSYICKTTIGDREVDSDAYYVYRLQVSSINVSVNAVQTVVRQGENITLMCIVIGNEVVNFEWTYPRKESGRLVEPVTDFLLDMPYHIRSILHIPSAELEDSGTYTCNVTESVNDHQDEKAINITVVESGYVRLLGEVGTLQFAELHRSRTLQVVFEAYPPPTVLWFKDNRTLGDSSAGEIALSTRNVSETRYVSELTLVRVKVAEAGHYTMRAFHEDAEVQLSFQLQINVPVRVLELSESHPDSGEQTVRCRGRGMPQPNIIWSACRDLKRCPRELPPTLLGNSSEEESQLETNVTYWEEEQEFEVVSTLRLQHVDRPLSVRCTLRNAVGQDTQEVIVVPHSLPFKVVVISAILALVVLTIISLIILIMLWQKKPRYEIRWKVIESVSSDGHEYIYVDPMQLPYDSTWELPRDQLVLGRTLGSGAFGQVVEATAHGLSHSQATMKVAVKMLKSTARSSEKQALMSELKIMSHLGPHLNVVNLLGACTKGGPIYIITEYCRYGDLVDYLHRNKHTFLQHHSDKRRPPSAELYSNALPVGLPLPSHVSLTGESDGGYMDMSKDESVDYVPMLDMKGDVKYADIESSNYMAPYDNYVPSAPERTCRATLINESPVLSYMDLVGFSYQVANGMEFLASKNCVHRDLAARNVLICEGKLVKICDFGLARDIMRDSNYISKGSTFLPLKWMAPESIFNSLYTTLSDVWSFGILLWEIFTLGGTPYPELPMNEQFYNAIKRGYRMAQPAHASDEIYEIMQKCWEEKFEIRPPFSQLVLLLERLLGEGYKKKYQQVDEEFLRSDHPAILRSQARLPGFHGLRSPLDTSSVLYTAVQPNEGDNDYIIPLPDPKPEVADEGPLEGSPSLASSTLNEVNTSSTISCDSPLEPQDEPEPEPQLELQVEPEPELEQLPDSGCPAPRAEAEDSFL

[10] = target: T10, Src (Homo sapiens, UniProt P12931); assay: Kinase inhibition assay (33P transfer), Src; settings: Table 6, Src-1 kinase inhibition class
T10 construct: Kinases are expressed as either kinase domains or full length constructs; made in house
In short: as §1

[11] = target: T11, Ret-1 (Homo sapiens, UniProt P07949); assay: Kinase inhibition assay (33P transfer), Ret; settings: Table 6, Ret-1 kinase inhibition class
T11 construct: Kinases are expressed as either kinase domains or full length constructs; made in house

[12] = target: T12, Tek (Homo sapiens, UniProt Q02763); assay: Kinase inhibition assay (33P transfer), Tek; settings: read-out: Tek-1
T12 construct: Kinases are expressed as either kinase domains or full length constructs; made in house
In short: as §1

[13] = target: T13, Flt-1 (Homo sapiens, UniProt P17948); assay: Kinase inhibition assay (33P transfer), Flt-1
T13 construct: Kinases are expressed as either kinase domains or full length constructs; made in house
T13 sequence (P17948 27-1338, species assumed): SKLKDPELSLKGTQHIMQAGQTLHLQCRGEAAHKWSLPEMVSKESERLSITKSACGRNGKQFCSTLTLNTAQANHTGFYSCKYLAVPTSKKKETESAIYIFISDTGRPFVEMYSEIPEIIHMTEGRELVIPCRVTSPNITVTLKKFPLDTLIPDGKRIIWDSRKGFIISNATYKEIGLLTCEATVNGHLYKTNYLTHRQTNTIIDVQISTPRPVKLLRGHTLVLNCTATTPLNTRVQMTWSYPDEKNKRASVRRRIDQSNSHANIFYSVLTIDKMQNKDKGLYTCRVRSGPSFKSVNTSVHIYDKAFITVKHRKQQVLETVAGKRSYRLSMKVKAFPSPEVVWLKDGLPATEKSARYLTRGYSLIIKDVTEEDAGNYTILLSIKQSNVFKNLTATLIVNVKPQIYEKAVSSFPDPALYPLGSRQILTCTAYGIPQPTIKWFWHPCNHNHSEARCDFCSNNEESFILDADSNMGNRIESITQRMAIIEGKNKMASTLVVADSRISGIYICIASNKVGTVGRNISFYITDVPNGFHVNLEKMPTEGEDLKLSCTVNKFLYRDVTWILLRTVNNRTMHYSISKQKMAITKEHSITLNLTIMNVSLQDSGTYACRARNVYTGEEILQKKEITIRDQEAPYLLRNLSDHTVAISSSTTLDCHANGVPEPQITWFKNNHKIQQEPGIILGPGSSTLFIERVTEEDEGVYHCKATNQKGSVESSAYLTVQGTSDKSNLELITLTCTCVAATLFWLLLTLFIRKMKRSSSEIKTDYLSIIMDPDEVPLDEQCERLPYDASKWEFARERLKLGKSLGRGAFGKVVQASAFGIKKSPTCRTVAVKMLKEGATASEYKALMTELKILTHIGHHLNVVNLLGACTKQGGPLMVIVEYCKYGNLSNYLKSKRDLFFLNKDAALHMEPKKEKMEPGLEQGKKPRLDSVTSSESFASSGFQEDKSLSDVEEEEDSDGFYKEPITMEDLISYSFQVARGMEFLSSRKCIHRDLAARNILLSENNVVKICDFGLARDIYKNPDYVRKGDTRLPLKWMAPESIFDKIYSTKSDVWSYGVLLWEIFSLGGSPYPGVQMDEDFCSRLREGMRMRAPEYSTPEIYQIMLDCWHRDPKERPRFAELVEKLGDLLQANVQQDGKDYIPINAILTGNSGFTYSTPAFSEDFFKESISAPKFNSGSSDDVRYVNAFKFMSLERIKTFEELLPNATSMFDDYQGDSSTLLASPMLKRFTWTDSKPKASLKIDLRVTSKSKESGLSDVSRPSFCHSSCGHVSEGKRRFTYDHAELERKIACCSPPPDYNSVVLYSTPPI
In short: as §1

[14] = target: T14, IGFR-1 (Homo sapiens, UniProt P08069); assay: Kinase inhibition assay, IGFR-1 (Table 2); settings: Table 2, kinase inhibition class
T14 construct: Kinases are expressed as either kinase domains or full length constructs; made in house

[15] = target: T15, Hck-1 (Homo sapiens, UniProt P08631); assay: Kinase inhibition assay (33P transfer), Hck; settings: Table 6, Hck-1 kinase inhibition class
T15 construct: Kinases are expressed as either kinase domains or full length constructs; made in house
T15 sequence (P08631 whole entry, the tested form may be a part): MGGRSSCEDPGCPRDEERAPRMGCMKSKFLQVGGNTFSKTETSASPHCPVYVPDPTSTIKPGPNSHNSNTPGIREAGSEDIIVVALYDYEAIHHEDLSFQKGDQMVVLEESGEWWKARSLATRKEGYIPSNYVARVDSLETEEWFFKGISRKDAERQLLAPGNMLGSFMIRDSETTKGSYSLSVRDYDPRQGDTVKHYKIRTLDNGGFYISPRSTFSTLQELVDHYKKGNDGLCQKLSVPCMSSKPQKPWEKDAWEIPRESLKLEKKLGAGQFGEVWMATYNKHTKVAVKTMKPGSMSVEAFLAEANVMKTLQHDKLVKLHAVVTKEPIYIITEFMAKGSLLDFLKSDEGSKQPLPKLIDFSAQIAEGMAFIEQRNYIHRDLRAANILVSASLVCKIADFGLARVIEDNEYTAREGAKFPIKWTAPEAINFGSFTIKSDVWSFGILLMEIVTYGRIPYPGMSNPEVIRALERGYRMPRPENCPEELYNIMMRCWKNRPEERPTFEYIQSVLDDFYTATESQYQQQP

[16] = target: T16, Lck (Homo sapiens, UniProt P06239); assay: Kinase inhibition assay (33P transfer), Lck; settings: read-out: Lck-1
T16 construct: Kinases are expressed as either kinase domains or full length constructs; made in house
In short: as §2

[17] = target: T17, Lyn (Homo sapiens, UniProt P07948); assay: Kinase inhibition assay (33P transfer), Lyn; settings: Table 6, Lyn-1 kinase inhibition class
T17 construct: Kinases are expressed as either kinase domains or full length constructs; made in house
In short: as §1

[18] = target: T18, Fyn (Homo sapiens, UniProt P06241); assay: Kinase inhibition assay (33P transfer), Fyn; settings: read-out: Fyn-1
T18 construct: Kinases are expressed as either kinase domains or full length constructs; made in house
In short: as §1

[19] = target: T19, AKT (Homo sapiens, UniProt Q9Y243); assay: Kinase inhibition assay (33P transfer), AKT; settings: Table 2, kinase inhibition class; read-out: AKT3-1
T19 construct: Kinases are expressed as either kinase domains or full length constructs; made in house
T19 sequence (Q9Y243 whole entry, the tested form may be a part): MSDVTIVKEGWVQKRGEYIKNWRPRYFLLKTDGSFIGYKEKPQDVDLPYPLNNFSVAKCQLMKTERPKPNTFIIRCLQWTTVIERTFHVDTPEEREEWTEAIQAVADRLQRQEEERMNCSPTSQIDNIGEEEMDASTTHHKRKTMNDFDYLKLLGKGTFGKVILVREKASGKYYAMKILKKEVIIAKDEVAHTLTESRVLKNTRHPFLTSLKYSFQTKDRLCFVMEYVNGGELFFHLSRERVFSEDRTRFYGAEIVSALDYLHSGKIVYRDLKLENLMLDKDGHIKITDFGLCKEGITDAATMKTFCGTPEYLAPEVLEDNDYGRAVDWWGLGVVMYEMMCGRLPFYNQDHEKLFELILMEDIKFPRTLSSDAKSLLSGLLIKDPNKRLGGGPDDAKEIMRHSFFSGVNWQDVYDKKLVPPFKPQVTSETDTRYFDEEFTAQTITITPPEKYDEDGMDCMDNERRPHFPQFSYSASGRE
In short: as §2

Measured: IC50

COc1cc(Nc2ncnc(Nc3ccc4c(cnn4Cc4ccccc4)c3)n2)cc(OC)c1OC [Compound 177]
0.827 to 4.96 µM: [3] | [4] | [12] | [13] | [14] | [15]
4.96 to 7.24 µM: [2] | [7] | [19]
7.24 to 9.31 µM: [1]
< 0.827 µM: all other assays above

Nc1nc2ccccc2n1-c1ncnc(Nc2ccc(N3CCOCC3)cc2)n1 [Compound 479]
< 1.03 µM: [14]
9.01 to 11.6 µM: [6] | [8] | [17]
1.03 to 6.18 µM: [3] | [7] | [11] | [13] | [16]
6.18 to 9.01 µM: [1] | [4] | [5] | [9]
> 11.6 µM: all other assays above

COc1cc(Nc2ncnc(-n3c(NCCc4ccccc4)nc4ccccc43)n2)cc(OC)c1OC [Compound 509]
< 0.804 µM: [3] | [11]
7.03 to 9.04 µM: [12]
4.82 to 7.03 µM: [1] | [5]
> 9.04 µM: [2] | [4] | [10] | [14] | [15] | [18] | [19]
0.804 to 4.82 µM: all other assays above

COc1cc(Nc2ncnc(-n3c(NCCc4ccccn4)nc4ccccc43)n2)cc(OC)c1OC [Compound 510]
4.81 to 7.02 µM: [9]
< 0.802 µM: [3]
0.802 to 4.81 µM: [1] | [7] | [11] | [13] | [16]
> 9.03 µM: all other assays above

COc1cc(Nc2ncnc(-n3c(NCc4ccccc4C)nc4ccccc43)n2)cc(OC)c1OC [Compound 511]
< 0.804 µM: [3] | [7] | [9] | [11] | [13] | [16]
7.03 to 9.04 µM: [5] | [12]
0.804 to 4.82 µM: [8] | [17]
> 9.04 µM: all other assays above

COc1cc(Nc2ncnc(-n3c(NCc4ccccc4F)nc4ccccc43)n2)cc(OC)c1OC [Compound 512]
0.798 to 4.79 µM: [8] | [13] | [16]
4.79 to 6.98 µM: [5]
< 0.798 µM: [3] | [7] | [9] | [11] | [17]
> 8.97 µM: all other assays above

COc1cc(Nc2ncnc(-n3c(NCc4cccc(F)c4)nc4ccccc43)n2)cc(OC)c1OC [Compound 513]
< 0.798 µM: [3] | [7] | [9] | [11] | [13]
6.98 to 8.97 µM: [5] | [6] | [10] | [14] | [18]
4.79 to 6.98 µM: [8]
0.798 to 4.79 µM: [16] | [17]
> 8.97 µM: all other assays above

COc1cc(Nc2ncnc(-n3c(NCc4ccc(F)cc4)nc4ccccc43)n2)cc(OC)c1OC [Compound 514]
< 0.798 µM: [3] | [7] | [9] | [11] | [13]
> 8.97 µM: all other assays above

COc1cc(Nc2ncnc(-n3c(NCc4ccc(Cl)cc4F)nc4ccccc43)n2)cc(OC)c1OC [Compound 606]
< 0.746 µM: [3]
0.746 to 4.48 µM: [7] | [9] | [11]
4.48 to 6.53 µM: [13] | [16] | [17]
6.53 to 8.4 µM: [5] | [14]
not listed: [12]
> 8.4 µM: all other assays above

COc1cc(Nc2ncnc(N(C)c3cccc4ccccc34)n2)cc(OC)c1OC [Compound 607]
< 0.958 µM: [3] | [6] | [11] | [16] | [17]
8.38 to 10.8 µM: [13]
> 10.8 µM: [1] | [2] | [4] | [14] | [19]
not listed: [12]
0.958 to 5.75 µM: all other assays above
